Assay results: US20260217673A1, “NOVEL COMPOUND AS RON INHIBITOR” (LG CHEM, LTD., priority 2022, published 2026)

Assays:
RON = RON (Homo sapiens, UniProt Q04912); assay: RON inhibitory activity, TR-FRET kinase assay; type: biochemical; settings: RON protein, ULight-labeled Poly GT substrate
Method: To measure the RON inhibitory activity of the example compounds, the IC50 of the compounds was measured using time-resolved fluorescence energy transfer (TR-FRET).
Specifically, the compound was prepared at a concentration of 1 mM with 100% DMSO and serially diluted 10 times through 3-fold dilution. 2 μl of the serially diluted compound was added to a 96-well plate containing 48 μl of 1× kinase reaction buffer (50 mM HEPES (pH 7.4), 0.01% Tween-20, 5 mM DTT, 0.5 mM Na3VO4, 2 mM EGTA, 10 mM MgCl2).
The RON protein was diluted with a RON storage buffer (50 mM Tris-HCl (pH 7.5), 150 mM NaCl, 0.5 mM EDTA, 0.02% Triton X-100) to a concentration of 49.3 nM, and then diluted again with 1× kinase reaction buffer to be 0.4 nM. As a substrate cocktail, a RON-specific substrate mixture (40 μM ULight-labeled Poly GT, 100 nM ATP) was prepared at a concentration twice the final reaction concentration.
(§1) After that, a 384-well plate was prepared, and 2.5 μl of the diluted example compound was added to each of the experimental group wells, and 2.5 μl of a 4% DMSO solution was dispensed into high control wells and low control wells.
(§2) Afterward, 2.5 μl of 0.4 nM RON was dispensed into the high control wells and the experimental group wells, and 2.5 μl of 1× kinase reaction buffer was added to the low control wells, and after centrifugation at 1000 RPM for 40 seconds at room temperature, the mixtures were incubated at room temperature for 20 to 30 minutes. Then, 5 μl of the substrate cocktail (2×) was dispensed into all wells, and after centrifugation at 1000 RPM for 40 seconds at room temperature, the mixtures were incubated at room temperature for 60 minutes. Afterward, 5 μl of 30 mM EDTA was added to all wells to terminate the reaction, and the mixtures were incubated again at room temperature for 5 minutes. Thereafter, 5 μl of 4× phosphotyrosine antibodies (Perkin Elmer) containing europium was added to all wells and incubated at room temperature for 60 minutes. After the incubation, the 384-well-plate was read with a Vison plate reader. At this time, the excitation wavelength was 340 nm, and the emission wavelengths were 620 nm and 665 nm. The IC50 value of each example compound was derived using the GraphPd Prism7 program.

cMET = cMET (Homo sapiens, UniProt P08581); assay: MET (cMET) enzyme inhibitory activity, TR-FRET kinase assay; type: biochemical; settings: cMET protein, TK peptide substrate
Chain of cMET (P08581 25-1390): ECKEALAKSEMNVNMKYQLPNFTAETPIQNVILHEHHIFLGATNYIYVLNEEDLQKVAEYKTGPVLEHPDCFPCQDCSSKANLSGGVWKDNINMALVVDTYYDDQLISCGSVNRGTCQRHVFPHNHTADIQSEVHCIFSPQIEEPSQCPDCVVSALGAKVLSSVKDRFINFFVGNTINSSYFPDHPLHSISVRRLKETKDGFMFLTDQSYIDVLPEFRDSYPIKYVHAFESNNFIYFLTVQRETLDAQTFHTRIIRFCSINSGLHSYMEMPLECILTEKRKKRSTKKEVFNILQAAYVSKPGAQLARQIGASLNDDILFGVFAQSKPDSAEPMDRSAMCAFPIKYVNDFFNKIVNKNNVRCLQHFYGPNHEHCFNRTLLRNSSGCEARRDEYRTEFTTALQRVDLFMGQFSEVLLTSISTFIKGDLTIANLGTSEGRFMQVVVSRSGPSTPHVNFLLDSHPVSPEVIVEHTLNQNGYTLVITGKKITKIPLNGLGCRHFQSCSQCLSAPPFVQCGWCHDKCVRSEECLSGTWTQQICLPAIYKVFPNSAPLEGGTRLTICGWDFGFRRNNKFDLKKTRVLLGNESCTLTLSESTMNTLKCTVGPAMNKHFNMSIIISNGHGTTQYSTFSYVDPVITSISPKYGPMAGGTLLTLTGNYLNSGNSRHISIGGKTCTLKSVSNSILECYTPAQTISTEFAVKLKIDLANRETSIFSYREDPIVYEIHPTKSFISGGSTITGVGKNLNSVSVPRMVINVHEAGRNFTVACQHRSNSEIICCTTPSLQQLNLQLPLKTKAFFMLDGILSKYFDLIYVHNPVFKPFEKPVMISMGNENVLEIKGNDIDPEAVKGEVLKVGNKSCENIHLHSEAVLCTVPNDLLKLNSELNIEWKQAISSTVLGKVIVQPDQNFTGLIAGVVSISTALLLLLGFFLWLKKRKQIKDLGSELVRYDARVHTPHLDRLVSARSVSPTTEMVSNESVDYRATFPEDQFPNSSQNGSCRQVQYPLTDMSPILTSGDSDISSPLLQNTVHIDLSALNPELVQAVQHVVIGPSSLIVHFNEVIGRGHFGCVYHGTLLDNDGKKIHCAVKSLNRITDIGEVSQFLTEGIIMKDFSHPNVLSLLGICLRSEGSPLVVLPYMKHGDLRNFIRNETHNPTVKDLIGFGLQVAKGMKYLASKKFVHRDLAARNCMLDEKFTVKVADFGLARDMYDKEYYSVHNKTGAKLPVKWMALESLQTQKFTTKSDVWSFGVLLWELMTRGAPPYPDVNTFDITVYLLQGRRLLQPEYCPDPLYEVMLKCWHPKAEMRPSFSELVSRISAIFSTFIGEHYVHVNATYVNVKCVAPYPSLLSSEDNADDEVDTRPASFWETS
Method: In addition, to measure cMET enzyme activity inhibition, an experiment was performed by the same method as the experiment for measuring the RON enzyme activity inhibition.
Specifically, the compound was prepared at a concentration of 1 mM with 100% DMSO and serially diluted 10 times through 3-fold dilution. 2 μl of the serially diluted compound was added to a 96-well plate containing 48 μl 1× kinase reaction buffer (50 mM HEPES (pH 7.4), 0.05% BSA, 0.005% Tween-20, 1 mM DTT, 0.5 mM MnCl2, 20 mM MgCl2).
The cMET protein was diluted in a cMET storage buffer (50 mM Tris-HCl (pH 7.5), 150 mM NaCl, 0.05% Brij35, 1 mM DTT, 10% glycerol) to a concentration of 263 nM, and then diluted again with 1× kinase reaction buffer to 2 nM. As a substrate cocktail, a MET-specific substrate mixture (5 μM TK peptide, 10 mM ATP) was prepared at a concentration twice the final reaction concentration.
as §1
as §2, with “μl of 2 nM cMET” for “μl of 0.4 nM RON”, “2 nM cMET was dispensed” for “0.4 nM RON was dispensed”, “was dispensed to the high” for “was dispensed into the high”, “μl of 90 mM EDTA” for “μl of 30 mM EDTA”

Chain of RON (Q04912 25-1400, species assumed): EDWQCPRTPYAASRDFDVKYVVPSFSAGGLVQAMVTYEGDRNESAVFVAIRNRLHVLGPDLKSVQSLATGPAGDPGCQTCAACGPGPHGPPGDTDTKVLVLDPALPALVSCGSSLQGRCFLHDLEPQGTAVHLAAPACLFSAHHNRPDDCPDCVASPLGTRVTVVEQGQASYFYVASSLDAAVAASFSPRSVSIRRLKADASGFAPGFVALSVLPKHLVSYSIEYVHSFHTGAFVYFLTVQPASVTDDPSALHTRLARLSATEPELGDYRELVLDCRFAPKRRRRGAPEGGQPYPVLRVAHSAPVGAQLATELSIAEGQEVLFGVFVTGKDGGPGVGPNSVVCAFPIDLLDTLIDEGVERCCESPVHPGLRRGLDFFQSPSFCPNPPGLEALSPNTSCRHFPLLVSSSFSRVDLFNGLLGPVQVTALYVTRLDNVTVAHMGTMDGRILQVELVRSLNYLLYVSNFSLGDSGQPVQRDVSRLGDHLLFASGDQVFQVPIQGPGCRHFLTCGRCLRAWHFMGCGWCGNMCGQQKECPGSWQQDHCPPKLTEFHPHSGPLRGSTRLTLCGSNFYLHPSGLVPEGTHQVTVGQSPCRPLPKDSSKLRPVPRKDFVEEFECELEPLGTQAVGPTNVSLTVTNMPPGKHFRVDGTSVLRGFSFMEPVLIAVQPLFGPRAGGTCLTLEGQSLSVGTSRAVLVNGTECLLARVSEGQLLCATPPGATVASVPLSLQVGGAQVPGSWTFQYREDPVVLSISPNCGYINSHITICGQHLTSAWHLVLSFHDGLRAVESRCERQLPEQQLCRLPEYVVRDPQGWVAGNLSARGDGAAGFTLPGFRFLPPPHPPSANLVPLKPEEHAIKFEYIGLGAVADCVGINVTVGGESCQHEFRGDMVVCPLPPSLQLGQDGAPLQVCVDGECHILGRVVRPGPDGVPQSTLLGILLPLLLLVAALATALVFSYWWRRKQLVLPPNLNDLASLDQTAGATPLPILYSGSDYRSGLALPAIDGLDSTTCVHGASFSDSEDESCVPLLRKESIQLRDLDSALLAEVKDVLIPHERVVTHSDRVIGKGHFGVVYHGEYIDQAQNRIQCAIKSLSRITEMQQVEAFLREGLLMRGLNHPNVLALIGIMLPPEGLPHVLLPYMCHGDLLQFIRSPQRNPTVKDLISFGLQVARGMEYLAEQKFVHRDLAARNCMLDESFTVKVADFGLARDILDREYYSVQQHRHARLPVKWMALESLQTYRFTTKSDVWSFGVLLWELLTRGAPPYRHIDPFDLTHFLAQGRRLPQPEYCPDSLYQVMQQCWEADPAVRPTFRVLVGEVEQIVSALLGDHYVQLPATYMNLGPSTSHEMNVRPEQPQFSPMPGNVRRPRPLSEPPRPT

Structure (SMILES) | IC50 (RON) | IC50 (cMET)
Nc1nccc(Oc2c(F)cc(NC(=O)c3cnn(-c4ccccn4)c3C(F)(F)F)cc2F)c1C1CCOCC1 [Example 24, N-(4-((2-amino-3-(tetrahydro-2H-pyran-4-yl)pyridin-4-yl)oxy)-3,5-difluorophenyl)-1-(pyridin-2-yl)-5-(trifluoromethyl)-1H-pyrazole-4-carboxamide] | < 50 nM | 500 to 5000 nM
C#Cc1c(Oc2c(F)cc(NC(=O)c3cnn(-c4ccccc4)c3C(F)(F)F)cc2F)ccnc1N [Example 25, N-(4-((2-amino-3-ethynylpyridin-4-yl)oxy)-3,5-difluorophenyl)-1-phenyl-5-(trifluoromethyl)-1H-pyrazole-4-carboxamide] | < 50 nM | 500 to 5000 nM
C#Cc1c(Oc2c(F)cc(NC(=O)c3cnn(-c4ncccc4F)c3C(F)(F)F)cc2F)ccnc1N [Example 26, N-(4-((2-amino-3-ethynylpyridin-4-yl)oxy)-3,5-difluorophenyl)-1-(3-fluoropyridin-2-yl)-5-(trifluoromethyl)-1H-pyrazole-4-carboxamide] | < 50 nM | 500 to 5000 nM
C#Cc1c(Oc2c(F)cc(NC(=O)c3cnn(-c4ncccc4Cl)c3C(F)(F)F)cc2F)ccnc1N [Example 27, N-(4-((2-amino-3-ethynylpyridin-4-yl)oxy)-3,5-difluorophenyl)-1-(3-chloropyridin-2-yl)-5-(trifluoromethyl)-1H-pyrazole-4-carboxamide] | < 50 nM | 50 to 500 nM
C#Cc1c(Oc2c(F)cc(NC(=O)c3cnn(-c4ncccn4)c3C(F)(F)F)cc2F)ccnc1N [Example 28, N-(4-((2-amino-3-ethynylpyridin-4-yl)oxy)-3,5-difluorophenyl)-1-(pyrimidin-2-yl)-5-(trifluoromethyl)-1H-pyrazole-4-carboxamide] | < 50 nM | 500 to 5000 nM
C#Cc1c(Oc2c(F)cc(NC(=O)c3cnn(-c4ccccn4)c3C(F)(F)F)cc2F)ccnc1N [Example 29, N-(4-((2-amino-3-ethynylpyridin-4-yl)oxy)-3,5-difluorophenyl)-1-(pyridin-2-yl)-5-(trifluoromethyl)-1H-pyrazole-4-carboxamide] | < 50 nM | 500 to 5000 nM
C#Cc1c(Oc2c(F)cc(NC(=O)c3cnn(-c4cccnn4)c3C(F)(F)F)cc2F)ccnc1N [Example 30, N-(4-((2-amino-3-ethynylpyridin-4-yl)oxy)-3,5-difluorophenyl)-1-(pyridazin-3-yl)-5-(trifluoromethyl)-1H-pyrazole-4-carboxamide] | < 50 nM | 500 to 5000 nM
N#Cc1c(Oc2c(F)cc(NC(=O)c3cnn(-c4ccccc4)c3C(F)(F)F)cc2F)ccnc1N [Example 31, N-(4-((2-amino-3-cyanopyridin-4-yl)oxy)-3,5-difluorophenyl)-1-phenyl-5-(trifluoromethyl)-1H-pyrazole-4-carboxamide] | < 50 nM | 500 to 5000 nM

More lines, now with the values ahead:

IC50 (RON) | IC50 (cMET) | Structure (SMILES)
< 50 nM | 50 to 500 nM | Nc1nccc(Oc2c(F)cc(NC(=O)c3cnn(-c4ncccc4Cl)c3C(F)(F)F)cc2F)c1C1CCOCC1 [Example 21, N-(4-((2-amino-3-(tetrahydro-2H-pyran-4-yl)pyridin-4-yl)oxy)-3,5-difluorophenyl)-1-(3-chloropyridin-2-yl)-5-(trifluoromethyl)-1H-pyrazole-4-carboxamide]
< 50 nM | 500 to 5000 nM | Nc1nccc(Oc2c(F)cc(NC(=O)c3cnn(-c4ncccn4)c3C(F)(F)F)cc2F)c1C1CCOCC1 [Example 22, N-(4-((2-amino-3-(tetrahydro-2H-pyran-4-yl)pyridin-4-yl)oxy)-3,5-difluorophenyl)-1-(pyrimidin-2-yl)-5-(trifluoromethyl)-1H-pyrazole-4-carboxamide]
< 50 nM | 500 to 5000 nM | Nc1nccc(Oc2c(F)cc(NC(=O)c3cnn(-c4cccnn4)c3C(F)(F)F)cc2F)c1C1CCOCC1 [Example 23, N-(4-((2-amino-3-(tetrahydro-2H-pyran-4-yl)pyridin-4-yl)oxy)-3,5-difluorophenyl)-1-(pyridazin-3-yl)-5-(trifluoromethyl)-1H-pyrazole-4-carboxamide]
